Measured values as given in patent US20060074047A1, “Method of treating inflammation with inhibitors of sialyl transferases” (priority 2004, published 2006).
Entries after “also recorded” stand apart in the source; their conditions may differ.

What was measured:
[1] = system: endogenous sialyltransferase activity of human polymorphonuclear leukocytes; assay: Sialyltransferase assay (flow cytometry), intact PMNs as endogenous ST source; format: cell-based
Text: (§1) For the study of PMN ST activity, a previously described ST assay was adapted in which CMP-5-NANA served as the labeled sialyl residue donor and neuraminidase-treated RBCs as the sialyl residue acceptor (7). Based on preliminary studies, a standard reaction mixture contained a sialyl residue acceptor, either RBCs or polymorphonuclear leukocytes, CMP-5-NANA and a ST source. Purified α2,6-ST at a final concentration of 0.5 nU/ml, or polymorphonuclear leukocytes as an endogenous source of ST activity were used in a final volume of 100 μl cell incubation buffer (CIB) containing PBS plus 5 mg/ml BSA, pH 6.8. Sialyl residue acceptor SRBCs and polymorphonuclear leukocytes were desialylated with 25 mU/ml NANase/1-2×10^8/cells in 1 ml of CIB for 1 h at 37° C., washed once in CIB and used at 4×10^6 cells or at 8×10^6 cells respectively in a volume of 40 μl. When used as an endogenous source of ST activity, human polymorphonuclear leukocytes were adjusted to a stock concentration of 1×10^8 PMN/ml, lysed by freeze/thawing, centrifuged, and the protein concentration of the supernatant determined (Bio-Rad Laboratories, Hercules, Calif.). Intact human polymorphonuclear leukocytes at 8×10^6/0.1 ml assay volume were also used both as a source of ST activity as well as an acceptor of sialyl residues.
(§2) After gentle mixing, all tubes were incubated for 2 h at 37° C. in a humidified atmosphere containing 5% CO2. The cells were washed, pelleted and resuspended in CIB and analyzed fluorocytometrically on a FACScan II (Becton-Dickinson, Mountain View, Calif.). Based on forward and right angle light scatter properties, an electronic gate was placed around the RBCs or polymorphonuclear leukocytes which were excited at […] and emission measured at 530 nm. At least 10,000 events were recorded per condition. Data was analyzed with a CellQuest analysis program.
For each experiment, controls included omission of each of the components of the assay mixture, i.e., ST source, CMP-5 NANA or sialyl residue acceptor) as well as boiled, exogenous α2,6 ST. When indicated, 2-DN (0.04 mM, final concentration), an inhibitor of sialidase activity (8) was introduced to prevent the possible removal of the transferred sialyl residues. ST activity was measured after subtraction of background fluorescence, i.e., complete assay mixture minus either the exogenous ST or, for endogenous ST, in the presence and absence of the ST inhibitor, CMP (0.3 mM final concentration) and was expressed as % of maximal activity. For experiments in which it was estimated the endogenous ST activity, a standard curve was constructed using serial 2-fold dilutions of purified α2-6 ST enzyme from which tissue ST activity was interpolated, and expressed the ST activity as nU per μg protein.

α2,6 sialyltransferase = α2,6 sialyltransferase (Photobacterium damselae, UniProt O66375); assay: Sialyltransferase assay (flow cytometry), exogenous ST with PMNs as sialyl residue acceptors; format: cell-based, bacterial; conditions: 0.3 mM CMP
Text: as §1, with “Sialyl residue acceptor SRBCs and polymorphonuclear leukocytes were desialylated with 25 mU/ml NANase/1-2×10^8/cells in 1 ml of CIB for 1 h at 37° C., washed once in CIB and used at 4×10^6 cells or at 8×10^6 cells respectively in a volume of 40 μl.” left out, “Intact human polymorphonuclear leukocytes at 8×10^6/0.1 ml assay volume were also used both as a source of ST activity as well as an acceptor of sialyl residues.” left out
as §2, with “Data was analyzed with a CellQuest analysis program.” left out

[2] = system: polymorphonuclear leukocytes adhering to human microvascular endothelial cells (HMVEC); assay: Adherence of resting PMNs to LPS-activated endothelial cells; format: cell-based; conditions: CMP 2.5 mM for 5 minutes prior to stimulation; LPS 100 ng/ml for 4 hrs; FIG. 5
Protocol: In contrast, when the human microvascular endothelial cells, HMVECs, are treated with lipopolysaccharide, LPS, (100 ng/ml for 4 hrs) to activate them, resting polymorphonuclear leukocytes adhere better to the HMVECs. […] When polymorphonuclear leukocytes are activated with the tetrapeptide FMLP (1×10^−7 M/cyt b for 5 min.) they adhere better than do resting polymorphonuclear leukocytes (FIG. 5). At this later stage of PMN-EC interaction, sialyltransferase doesn't play a role. It is contemplated that CMP appears to work by inhibiting the initial binding of non-activated polymorphonuclear leukocytes to the ECs and also works at the late stage where polymorphonuclear leukocytes that have migrated through the EC monolayer are unable to move further to the inflammatory nidus.

[3] = system: polymorphonuclear leukocytes in the peritoneal fluid; assay: In vivo IL-8 recruitment of PMNs to the peritoneal fluid; conditions: mice; CMP intravenously 30 min before and 1 hr after IL-8 (150 ng/ml) intraperitoneally; counted at 2 hrs
Protocol: Mice are pre-treated intravenously with different doses of CMP 30 minutes before giving IL-8 (150 ng/ml) intraperitoneally to recruit polymorphonuclear leukocytes. This is followed with another dose of CMP one hr after the IL-8. Polymorphonuclear leukocytes in the peritoneal fluid of these mice are counted at 2 hrs after the IL-8, i.e., one hr after the second dose of CMP. The total polymorphonuclear leukocytes in the perioneal fluid of mice treated with CMP is compared with those given an equal volume of saline. It is contemplated that those receiving the CMP will have a lower number of polymorphonuclear leukocytes in the perioneal fluid.

[4] = system: human polymorphonuclear leukocytes migrating across human pulmonary artery endothelial cells (HPAEC); assay: Transendothelial migration of PMNs across HPAEC monolayers in response to IL-8; format: cell-based; conditions: 0.3 mM CMP; TNF-treated HPAEC monolayers, IL-8 150 ng/ml, 2 h; p<0.03
Protocol: FIG. 4 depicts inhibition of transendothelial cell migration by an ST inhibitor, cytidine monophosphate (CMP). Calcein AM-labeled human polymorphonuclear leukocytes were added to human pulmonary artery endothelial cells (HPAEC) pre-treated for 4 hrs with rTNF (50 U/ml). TEM was measured in response to IL-8 (150 ng/ml) over 2 hr as previously described (6) in the absence and presence of 0.3 mM CMP. 4 chambers/variable were studied. This figure is representative of 3 independent experiments.
The ability of human polymorphonuclear leukocytes to migrate across human pulmonary artery endothelial cell (HPAEC) monolayers in response to a chemotactic stimulus (IL-8) was measured as previously described (6). Only EC monolayers retaining […] of a ^14C-bovine serum albumen tracer were studied (i.e. no loss of barrier function). After treatment of HPAECs for 4 h with 25 U/ml TNFr, calcein AM (Molecular Probes, Eugene, Oreg.)-labeled human polymorphonuclear leukocytes (5×10^5 cells/well) were introduced into the upper compartments of the assay chambers, incubated for 2 h at 37° C., after which time each lower compartment was sampled and fluorometrically assayed. A standard curve was established for each experiment from which polymorphonuclear leukocyte numbers could be interpolated from fluorescence units and PMN TEM was expressed as % migration.

[5] = system: polymorphonuclear leukocytes; assay: Preliminary tests of CMP toxicity to PMNs; format: cell-based, human; conditions: 0.3 mM CMP

Sequence of α2,6 sialyltransferase (O66375 entry or part of it): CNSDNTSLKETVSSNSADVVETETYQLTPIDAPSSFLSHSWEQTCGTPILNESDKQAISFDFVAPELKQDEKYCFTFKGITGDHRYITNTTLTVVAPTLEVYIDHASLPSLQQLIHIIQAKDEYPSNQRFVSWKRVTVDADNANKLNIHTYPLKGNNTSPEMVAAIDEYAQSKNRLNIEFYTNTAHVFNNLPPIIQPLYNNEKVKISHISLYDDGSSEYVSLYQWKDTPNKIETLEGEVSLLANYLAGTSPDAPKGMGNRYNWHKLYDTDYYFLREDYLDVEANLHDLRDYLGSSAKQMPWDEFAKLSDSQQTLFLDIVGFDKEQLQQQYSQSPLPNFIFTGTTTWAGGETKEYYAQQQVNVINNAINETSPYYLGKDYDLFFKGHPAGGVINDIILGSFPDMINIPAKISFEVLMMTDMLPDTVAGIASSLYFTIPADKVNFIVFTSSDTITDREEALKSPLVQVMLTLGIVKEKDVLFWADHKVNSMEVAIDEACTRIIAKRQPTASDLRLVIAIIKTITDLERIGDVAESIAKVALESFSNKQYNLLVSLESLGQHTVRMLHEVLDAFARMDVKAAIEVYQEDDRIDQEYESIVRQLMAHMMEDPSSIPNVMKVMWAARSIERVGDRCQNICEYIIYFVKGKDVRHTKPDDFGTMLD

SMILES | MFI (ST activity) in presence of sialidase inhibitor 2-DN ([1]; FIG. 3B: intact untreated PMNs, 2-DN 0.04 mM final concentration, MFI 364 without 2-DN) | MFI (mean fluorescence intensity) with CMP (α2,6 sialyltransferase; FIG. 2A: neuraminidase-pretreated PMNs + exogenous sialyltransferase, MFI 406 without CMP) | MFI (mean fluorescence intensity) with CMP (α2,6 sialyltransferase; FIG. 2B: PMNs unexposed to neuraminidase + exogenous sialyltransferase, MFI 310 without CMP) | adherence of resting PMNs to LPS-treated HMVECs [2] | number of polymorphonuclear leukocytes in the peritoneal fluid vs saline [3] | inhibition of TEM (transendothelial migration) [4] | toxicity to the polymorphonuclear leukocytes [5] | inhibition of ST activity in vitro ([1]; 0.3 mM CMP, preliminary tests) | MFI (mean fluorescence intensity) with CMP ([1]; FIG. 2C: neuraminidase-pretreated PMNs + intact untreated PMNs as endogenous ST source, 0.3 mM CMP, MFI 295 without CMP) | MFI (mean fluorescence intensity) with CMP ([1]; FIG. 2D: intact untreated PMNs added to PMNs not exposed to neuraminidase, 0.3 mM CMP, MFI 266 without CMP) | mean fluorescence intensity (MFI) after CMP treatment ([1]; FIG. 3A: PMNs (8×10^6), 10 μM CMP-NANA, 0.3 mM CMP, MFI 364 without CMP)
CC(=O)N[C@H]1[C@H]([C@H](O)[C@H](O)CO)OC(C(=O)O)=C[C@@H]1O [2-DN, 2,3 deoxy-N-acetyl neuraminic acid] | 317 | – | – | – | – | – | – | – | – | – | –
Nc1ccn([C@@H]2O[C@H](COP(=O)(O)O)[C@@H](O)[C@H]2O)c(=O)n1 [CMP, cytidine 5′-monophosphate] | – | 165 | 167 | inhibits the initial binding; also recorded: decreased adherence | lower number | > 40% | not toxic | fully inhibited | 141 | 131 | 222
